According to the PolyMetriX glass transition set:
± gives the standard deviation of the reports.

| Structure (SMILES) | glass transition temperature |
| --- | --- |
| *c1ccc(-c2ccc(N3C(=O)c4ccc(Oc5ccc6c(c5)C(=O)N(*)C6=O)cc4C3=O)cc2)cc1 (repeat unit) | 286.00 °C |
| *c1ccc2c(c1)C(=O)N(c1cccc(C(F)(F)C(F)(F)C(F)(F)c3cccc(N4C(=O)c5ccc(C(F)(F)C(F)(F)C(F)(F)C(*)(F)F)cc5C4=O)c3)c1)C2=O (repeat unit) | 159.00 °C |
| *CCCCCC(=O)Oc1ccc(C(C)(C)c2ccc(C(C)(C)c3ccc(OC(=O)c4ccc5c(c4)C(=O)N(*)C5=O)cc3)cc2)cc1 (repeat unit) | 104.00 °C |
| *c1ccc(Nc2ccc(C3(c4ccc(Nc5ccc(S(*)(=O)=O)cc5)c(F)c4)c4ccccc4-c4ccccc43)cc2F)cc1 (repeat unit) | 145.00 °C |
| *CC(O)CN(*)c1ccccc1 (repeat unit) | 78.50 °C |
| *CC(O)COc1ccc(C2(C)CC(C)(C)c3cc(O*)ccc32)cc1 (repeat unit) | 120.00 °C |
| *CC(*)C(=O)OCCN(C)C (repeat unit) | -39.00 °C |
| *Nc1cccc2c(NC(=O)Nc3cc(NC(*)=O)cc(C(=O)Nc4ccc5c(c4)C(=O)c4ccccc4C5=O)c3)cccc12 (repeat unit) | 178.00 °C |
| */C=C/C(C*)COCC(=O)OCCCCCCCCOc1ccc(/C=C/c2ccc([N+](=O)[O-])cc2)cc1 (repeat unit) | 23.00 °C |
| *Cc1cc2cc(C(=O)Nc3ccc(S(=O)(=O)c4ccc(NC(=O)c5cc6cc(*)c(OC(=O)COc7ccc8ccc(=O)oc8c7)cc6oc5=O)cc4)cc3)c(=O)oc2cc1OC(=O)COc1ccc2ccc(=O)oc2c1 (repeat unit) | 233.00 °C |
| *C(=O)c1ccc2c(c1)C(=O)N(c1ccc(NC(=O)c3cccc(C(=O)Nc4ccc(N5C(=O)c6ccc(*)cc6C5=O)cc4)c3)cc1)C2=O (repeat unit) | 247.00 °C |
| *c1ccc(S(=O)(=O)c2ccc(N3C(=O)C(C)C(SCCOCCSC4C(=O)N(c5ccc(S(=O)(=O)c6ccc(N7C(=O)CC(C)(SCCOCCSC8(C)CC(=O)N(*)C8=O)C7=O)cc6)cc5)C(=O)C4C)C3=O)cc2)cc1 (repeat unit) | 157.00 °C |
| *OC(COC(=O)c1ccc(C(*)=O)cc1)COc1ccc(/N=N/c2ccc(C#N)cc2)cc1 (repeat unit) | 122.00 °C |
| *c1cccc(P(=O)(c2ccccc2)c2cccc(-n3c(=O)c4cc5c(=O)n(*)c(=O)c5c(-c5ccc(C(F)(F)F)cc5)c4c3=O)c2)c1 (repeat unit) | 321.00 °C |
| *CC(*)(C)C(=O)OCCCCCCCCCCOc1ccc(/N=N/c2ccc(C3OCC4(CO3)CC3C=CC4C3)cc2)cc1 (repeat unit) | 103.20 °C |
| *c1cc(C(=O)NCCCC)cc(N2C(=O)c3ccc(-c4ccc5c(c4)C(=O)N(*)C5=O)cc3C2=O)c1 (repeat unit) | 291.00 °C |
| *O[Si](*)(C)CCCCCC (repeat unit) | -110.8 °C |
| *CC(*)C(=O)OCCCOc1ccc(-c2ccc(C#N)cc2)cc1 (repeat unit) | 54.2 °C |
| *CC(*)C(=O)OCCCOCC (repeat unit) | -61.50 °C |
| *CCCCCCCCCCOC(=O)CCCCC(=O)O* (repeat unit) [Poly(decamethylene adipate) ] | -57 ± 6.6 °C |
| *CCCCCCCCCCN/C(=N/*)c1ccccc1 (repeat unit) | 10.00 °C |
| *Oc1ccc(C2(c3ccc(Oc4ccc(C(=O)C(=O)c5ccc(*)cc5)cc4)cc3)c3ccccc3-c3ccccc32)cc1 (repeat unit) | 242.00 °C |

| Structure (SMILES) | glass transition temperature |
| --- | --- |
| *O[Si](*)(CCCOCCOC)CCCOCCOC (repeat unit) | -55.00 °C |
| *Nc1ccc(-c2ccc(NC(=O)c3ccc(C(*)=O)cc3)cc2)cc1 (repeat unit) | 340.00 °C |
| *Oc1ccc(-c2ccc(Oc3ccc(*)cc3)c3ccccc23)c2ccccc12 (repeat unit) | 226.00 °C |
| *C(=O)Nc1ccc(Oc2ccc(C(C)(C)c3ccc(Oc4ccc(NC(=O)c5ccc6c(c5)C(=O)N(c5ccc(Oc7cccc(N8C(=O)c9ccc(*)cc9C8=O)c7)cc5)C6=O)cc4)cc3)cc2)cc1 (repeat unit) | 207.00 °C |
| *CCOc1ccc(C(=O)Nc2cc(NC(=O)c3ccc(O*)cc3)cc(-c3nc4ccccc4[nH]3)c2)cc1 (repeat unit) | 275.00 °C |
| *CC#CCOC(=O)CCCCCCC(=O)O* (repeat unit) | -38.00 °C |
| *CCOCCOC(=O)CCSCCC(=O)O* (repeat unit) | -33.00 °C |
| *CCCCCCOC(=O)C(CCCCCP(=O)(OCC)OCC)C(=O)OCCCCCCOc1ccc(-n2on2-c2ccc(O*)cc2)cc1 (repeat unit) | 7.00 °C |
| *CCCCCCOP(=O)(/N=N/c1ccc(-c2ccc(/N=N/P(=O)(O*)OC)cc2)cc1)OC (repeat unit) | 37.00 °C |
| *CC(O)COc1ccc(C(C)(C)C2CCC(C)(c3ccc(O*)cc3)CC2)cc1 (repeat unit) | 135.00 °C |
| *Oc1ccc(Oc2ccc(Oc3ccc(NC(=O)c4ccc(-c5ccc(C(=O)Nc6ccc(*)cc6)c(C)c5)cc4C)cc3)cc2)cc1 (repeat unit) | 200.00 °C |
| *Oc1ccccc1C(=O)OC(=O)c1ccccc1OC(=O)c1ccc(C(*)=O)cc1 (repeat unit) | 120.00 °C |
| *CC(O)COC(=O)CCCCCCC(=O)OCC(O)COc1ccc(C(C)(C)c2ccc(O*)cc2)cc1 (repeat unit) | 35.00 °C |
| *Oc1ccc(S(=O)(=O)c2ccc(Oc3ccc(/C=N/N=C/c4ccc(*)cc4)cc3)cc2)cc1 (repeat unit) | 151.00 °C |
| *CC(O)COc1ccc(C(C)CC(C)(C)c2ccc(O*)cc2)cc1 (repeat unit) | 75.00 °C |
| *Oc1ccc(S(=O)(=O)c2ccc(Oc3ccc(P(C)(=O)c4ccc(*)cc4)cc3)cc2)cc1 (repeat unit) | 233.00 °C |
| *CCOCC(CCl)O* (repeat unit) | -40.00 °C |
| *c1ccc2c(c1)C(=O)N(c1c(C)cc(C(c3cccc(C(F)(F)F)c3)c3cc(C)c(N4C(=O)c5ccc(C(*)(C(F)(F)F)C(F)(F)F)cc5C4=O)c(C)c3)cc1C)C2=O (repeat unit) | 286.10 °C |
| *Oc1ccc(Cc2ccc(OC(=O)c3cccc(C(*)=O)c3)cc2)cc1 (repeat unit) | 150.00 °C |
| *CC(*)c1ccc(CCC)cc1 (repeat unit) | 46.8 °C |
| *CC(*)(C)C(=O)OCCCCCCCCCCOc1ccc(OC(=O)c2ccc(OC)c(Br)c2)cc1 (repeat unit) | 29.00 °C |
| *C(=O)OCCN(CCOC(=O)c1ccc2c(c1)C(=O)N(c1c(C)cc(Cc3cc(C)c(N4C(=O)c5ccc(*)cc5C4=O)c(C)c3)cc1C)C2=O)c1ccc(/N=N/c2ccc([N+](=O)[O-])cc2[N+](=O)[O-])cc1 (repeat unit) | 176.00 °C |

| Structure (SMILES) | glass transition temperature |
| --- | --- |
| *Oc1ccc(C2(c3ccc(OC(=O)CCC(*)=O)cc3)c3cc(OC)ccc3-c3ccc([N+](=O)[O-])cc32)cc1 (repeat unit) | 230.00 °C |
| *C1C(=O)N(C(C)CC)C(=O)C1* (repeat unit) | 205.00 °C |
| *c1cccc(N2C(=O)c3cccc(Oc4c(C)cc(-c5cc(C)c(Oc6cccc7c6C(=O)N(*)C7=O)c(C)c5)cc4C)c3C2=O)c1 (repeat unit) | 311.00 °C |
| *CC(O)CN(C)S(=O)(=O)c1cccc(S(=O)(=O)N(C)CC(O)COc2ccc(C(C)(C)c3ccc(O*)cc3)cc2)c1 (repeat unit) | 76.00 °C |
| *c1ccc(Oc2ccc(-c3cc(OCCCCCC)c(-c4ccc(Oc5ccc(-c6nnc(*)o6)cc5)cc4)cc3OCCCCCC)cc2)cc1 (repeat unit) | 103.00 °C |
| *c1cccc(P(=O)(c2ccc(C(F)(F)F)cc2)c2cccc(-n3c(=O)c4cc5c(=O)n(*)c(=O)c5c(-c5ccc(C(F)(F)F)cc5)c4c3=O)c2)c1 (repeat unit) | 303.00 °C |
| *CC(*)(CC(=O)OC(C)C)C(=O)OC12CC3CC(CC(C3)C1)C2 (repeat unit) | 180.00 °C |
| *OC(C)COC(=O)/C=C/C(*)=O (repeat unit) | -14.00 °C |
| *CCN(*)C(=O)c1cc(F)c(F)c(F)c1 (repeat unit) | 65.00 °C |
| *c1ccc(Oc2ccc(-c3ccc(Oc4ccc(-c5nnc(*)c6c(-c7ccccc7)c(-c7ccc8ccccc8c7)c(-c7ccc8ccccc8c7)c(-c7ccccc7)c56)cc4)cc3)cc2)cc1 (repeat unit) | 334.00 °C |
| *CC[Si](C)(C)O[Si]1(*)O[Si](C)(C)O[Si](C)(C)O1 (repeat unit) | -64.00 °C |
| *Oc1ccc(Oc2ccc(S(=O)(=O)c3ccc(-c4ccc(S(=O)(=O)c5ccc(*)cc5)cc4)cc3)cc2)cc1 (repeat unit) | 251.00 °C |
| */C=C/c1ccc(OC(=O)CCCCCCCCC(=O)Oc2ccc(-c3nnc(*)s3)cc2)cc1 (repeat unit) | 30.00 °C |
| *C(=O)Nc1ccc(Oc2ccccc2-c2ccccc2Oc2ccc(NC(=O)c3ccc4c(c3)C(=O)N(c3ccc(Cc5ccc(N6C(=O)c7ccc(*)cc7C6=O)cc5)cc3)C4=O)cc2)cc1 (repeat unit) | 240.00 °C |
| *CCC(C)(C)C(*)(C)C (repeat unit) | 87.00 °C |
| *CCOCCOC(=O)C(CCCCC)C(=O)O* (repeat unit) | -47.00 °C |
| *CCOCCOCCOCCOCCOc1ccc(C(=O)Nc2cc(NC(=O)c3ccc(O*)cc3)cc(-c3nc4ccccc4[nH]3)c2)cc1 (repeat unit) | 145.00 °C |
| *C(=O)OCCCCCCCCCCOC(=O)c1ccc(NC(=O)c2ccc(N3C(=O)c4ccc(*)cc4C3=O)cc2)cc1 (repeat unit) | 102.00 °C |
| */C=C/c1ccc(*)c(-c2c(OCC(CC)CCCC)ccc3ccccc23)c1 (repeat unit) | 118.00 °C |
| *CCC1CC(*)C2C3CC(c4ccc(COC(C)CC)cc4)C(C3)C12 (repeat unit) | 139.00 °C |
| *Oc1ccc(Cc2ccc(OC(*)=O)cc2)cc1 (repeat unit) | 133.50 °C |
| *CC(*)C1CCC(C(C)(C)C)CC1 (repeat unit) | 131.00 °C |
